Assay results from publication PMC11968394, “The effect of deuterated PLK1 inhibitor on its safety and efficacy in vivo” (Frontiers in Oncology, 2025).
Values joined by “and” are separate entries in the source; they are usually repeats but may differ in a detail not shown here. Equal entries are not always repeated. Where two headings read alike, the source gives them in different places.

Assays:
Capan-1 = test: Cell viability (CellTiter-Glo, 72 h), Capan-1; type: cell-based, Human; settings: Capan-1, 72 hours; for Bottom: dose-response curve bottom; for Top: dose-response curve top; for IC50: Homo sapiens
Protocol: Human pancreatic cancer cell lines (PSN1, PANC-1, Panc 04.03, MIA PaCa-2, BxPC-3, and Capan-1) were cultured in their respective culture media. PSN1 cell lines were maintained in RPMI 1640 + 10%FBS. MIA PaCa-2 cells were cultured in DMEM+10%FBS+5% horse serum. Panc 04.03 cells were grown in RPMI 1640 + 15%FBS+10μg/mL Insulin. PANC-1 cells were maintained in DMEM+10%FBS. BxPC-3 cells were cultured in RPMI 1640 + 10%FBS. Capan-1 cells were grown in IMDM+20%FBS. All cells were incubated at 37°C in a humidified atmosphere containing 5% CO2.
For assays, cells in the logarithmic growth phase were harvested, seeded to different concentrations at 2,000-6,000 cells/well in 96-well plates. Following overnight incubation, test compounds were added at various concentrations and incubated for 72 hours. Cell viability was assessed by the ATP concentration using the CellTiter-Glo reagent (Promega, Madison, WI 53711 USA), and luminescence values were recorded by a Multilabel Reader (PerkinElmer, Waltham, MA, USA).

DYRK2 = DYRK2 (Homo sapiens, UniProt Q92630); test: Kinase assay DYRK2; type: biochemical
Protocol: (§1) Serial dilutions in DMSO were prepared. PLK1 was serially diluted 5-fold from 10 μM, yielding concentrations from 10000 nM to 0.00512 nM. Other targets were serially diluted 3-fold from 10 μM, yielding concentrations from 10000 nM to 0.5 nM. We have used two kinase assays: HTRF assay and ADG-Glo assay.
(§2) For HTRF Assay, 2× ATP/substrate solution and 2× kinase solution were prepared in kinase reaction buffer. Using an Echo 655, 50 nL of each diluted compound was transferred to a 384-well detection plate. The plate was centrifuged at 1000 rpm for 1 minute. 2.5 μL of 2× kinase solution was added to each well. The plate was incubated at 25°C for 10 minutes. 2.5 μL of 2× ATP/substrate solution was added to each well. The plate was centrifuged at 1000 rpm for 1 minute. The plate was incubated at 25°C for 40 minutes. 2× XL665 and antibody detection reagent were prepared in detection buffer. 5 μL of the prepared kinase detection reagent was added to each well. The plate was centrifuged at 1000 rpm for 1 minute. The plate was incubated at 25°C for 1 hour. Fluorescence signals at 620 nm (Cryptate) and 665 nm (XL665) were measured using a multifunction plate reader.
(§3) For ADP-Glo Assay, 2× ATP/substrate solution and 2× kinase solution were prepared in kinase reaction buffer. […] Luminescence signals were measured using a multifunction plate reader.

DRAK1 = DRAK1 (Homo sapiens, UniProt Q9UEE5); test: Kinase assay DRAK1; type: biochemical
Protocol: as §1, §2, §3

DYRK3 = DYRK3 (Homo sapiens, UniProt O43781); test: Kinase assay DYRK3; type: biochemical
Protocol: as §1, §2, §3

[1] = Caco-2 permeability assay; type: in vitro ADME; settings: for Permeability classification: Caco-2, by comparing Propranolol, Digoxin, Prazosin; for recovery at 2 h, 5 μM / Papp A→B at 2 h, 5 μM / Papp B→A at 2 h, 5 μM: human; for Papp A→B at 2 h, 5 μM / Papp B→A at 2 h, 5 μM: Caco-2, 5 μM
Protocol: Caco-2 cells were cultured in 10% FBS DMEM for 14-21 days before assays. […] HBSS was added to the opposite chamber. After 2 hours incubation at 37°C, samples were analyzed by LC-MS/MS. Fluorescein leakage was tested by adding 100 μM fluorescein to the upper chamber and measuring fluorescence after 30 minutes.

BxPC-3 CDX model = test: BxPC-3 CDX model; type: in vivo, NOD SCID mouse; settings: for Mice died: NOD SCID, 60 mg/kg, 6 mice/group, 10 days
Protocol: These studies were performed at Yikon Medical (Beijing, China). Cancer cell line HCT 116 or BxPC-3 were cultured in 10% FBS RPMI-1640 medium plus penicillin, streptomycin, and glutamine at 37°C and 5% CO2 until reaching confluency. Cells were then prepared for inoculation. 5×10⁷ cells/mL cells in 100 µL were inoculated subcutaneously into the right flank of each female BALB/c nude mouse for HCT 116 cell line or female NOD SCID mouse for BxPC-3 cell line. When tumors reached 100-150 mm³, mice were divided into 4-5 groups (6-7 mice/group). […] Mice were dosed at least 10 days and were monitored for 30 days.
(§4) TGI was calculated as follows.

Sprague-Dawley rats = test: Sprague-Dawley rat repeated administration toxicity study; settings: for Death / survival after 9-day dosing: Sprague-Dawley rats, oral 15 mg/kg once a day, n=3; for Rats survived at day 14: female, Sprague-Dawley, po, 14 days
Protocol: Rat toxicity was studied at JOINN Laboratories (Suzhou, Jiangsu, China). […] […] […] Using 2 mL sterile syringes and gavage tubes, animals were dosed based on their most recent body weight, with volumes rounded to one decimal place. Test compounds were stirred continuously for at least 15 minutes before and during administration. The rats were dosed once a day for 14 days.

PSN-1 CDX model = test: PSN-1 CDX model, tumor growth inhibition after 4-day dosing; type: in vivo, M-NSG mice; settings: for TGI / Tumor volume Day 4: 4-day dosing; for Tumor volume Day 0: baseline
Protocol: For in vivo PK/PD studies, a PSN1 tumor model was established in female M-NSG (NOD.Cg-Prkdc^scidIl2rg^em1Smoc ) mice, which are severely immunodeficient mice lacking the interleukin 2 receptor gamma chain on a NOD.Cg-Prkdc^scid background, at Shanghai Model Organisms (Shanghai, China). Briefly, 5 × 10^6 PSN1 cells were inoculated subcutaneously into each M-NSG mouse. Once the tumors reached approximately 500 mm³, compounds were administered orally at various dosages. For PK studies, blood samples were collected at 0, 0.25, 0.5, 1, 2, 6, and 24 hours post-dose. The sera from blood were then obtained and stored at -70°C. For PD studies, tumors were harvested 2 hours after dosing and stored at -70°C.The serum and tumor samples were then transported to PRECEDO (Hefei, Anhui, China) for further PK/PD studies.
as §4

[2] = Caco-2, Caco-2, A-B, read-out: Recovery A-B%
[3] = Caco-2, Caco-2, B-A, read-out: Recovery B-A%

Sequence of DYRK3 (O43781 whole entry, species assumed): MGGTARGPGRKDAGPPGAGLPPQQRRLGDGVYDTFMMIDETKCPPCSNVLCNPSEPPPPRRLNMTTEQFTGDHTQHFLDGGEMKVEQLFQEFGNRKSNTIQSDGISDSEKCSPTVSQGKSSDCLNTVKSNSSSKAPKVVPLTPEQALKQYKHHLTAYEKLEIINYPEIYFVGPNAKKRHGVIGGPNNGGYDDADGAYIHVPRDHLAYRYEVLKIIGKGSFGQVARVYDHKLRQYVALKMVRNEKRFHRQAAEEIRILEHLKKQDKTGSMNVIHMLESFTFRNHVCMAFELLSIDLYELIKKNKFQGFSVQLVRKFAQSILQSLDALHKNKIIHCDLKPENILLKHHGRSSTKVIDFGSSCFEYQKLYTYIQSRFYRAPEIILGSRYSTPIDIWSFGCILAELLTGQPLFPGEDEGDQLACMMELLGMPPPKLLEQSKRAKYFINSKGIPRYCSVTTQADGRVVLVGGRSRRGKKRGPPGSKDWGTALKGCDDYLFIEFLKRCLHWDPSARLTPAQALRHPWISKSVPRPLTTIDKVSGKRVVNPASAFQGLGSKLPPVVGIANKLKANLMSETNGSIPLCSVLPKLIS
Sequence of DRAK1 (Q9UEE5 whole entry, species assumed): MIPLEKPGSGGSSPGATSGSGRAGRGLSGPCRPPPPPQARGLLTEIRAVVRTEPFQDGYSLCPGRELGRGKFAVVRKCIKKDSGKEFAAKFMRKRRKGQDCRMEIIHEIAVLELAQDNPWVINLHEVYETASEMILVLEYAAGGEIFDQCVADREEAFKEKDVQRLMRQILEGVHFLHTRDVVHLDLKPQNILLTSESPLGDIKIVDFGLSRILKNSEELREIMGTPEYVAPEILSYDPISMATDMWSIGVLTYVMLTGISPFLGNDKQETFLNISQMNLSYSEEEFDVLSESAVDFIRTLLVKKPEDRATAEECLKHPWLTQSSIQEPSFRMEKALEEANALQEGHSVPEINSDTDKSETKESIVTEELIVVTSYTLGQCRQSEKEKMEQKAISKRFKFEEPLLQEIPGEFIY
Sequence of DYRK2 (Q92630 whole entry): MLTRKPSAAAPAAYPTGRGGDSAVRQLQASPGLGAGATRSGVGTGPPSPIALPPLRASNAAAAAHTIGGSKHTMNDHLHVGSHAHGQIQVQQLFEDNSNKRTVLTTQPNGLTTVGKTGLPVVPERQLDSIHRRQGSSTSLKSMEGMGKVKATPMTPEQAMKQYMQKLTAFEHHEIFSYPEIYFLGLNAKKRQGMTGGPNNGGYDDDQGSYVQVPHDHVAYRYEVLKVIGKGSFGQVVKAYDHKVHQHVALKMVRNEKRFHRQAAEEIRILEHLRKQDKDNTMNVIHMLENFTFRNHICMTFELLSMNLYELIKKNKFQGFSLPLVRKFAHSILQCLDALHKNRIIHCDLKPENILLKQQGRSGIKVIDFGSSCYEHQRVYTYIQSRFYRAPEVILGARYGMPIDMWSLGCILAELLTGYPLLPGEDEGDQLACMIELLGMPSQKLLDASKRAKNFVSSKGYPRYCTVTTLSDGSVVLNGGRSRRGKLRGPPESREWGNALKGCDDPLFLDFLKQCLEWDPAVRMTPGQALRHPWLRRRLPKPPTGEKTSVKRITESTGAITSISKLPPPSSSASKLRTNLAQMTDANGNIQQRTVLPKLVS

Row | Compound | Bottom (Capan-1) | Top (Capan-1) | IC50 (Capan-1) | IC50 (DYRK2) | IC50 (DRAK1) | IC50 (DYRK3) | Permeability classification [1] | recovery at 2 h, 5 μM [1, 2] | recovery at 2 h, 5 μM [1, 3] | Papp A→B at 2 h, 5 μM [1] | Papp B→A at 2 h, 5 μM [1] | Mice died (BxPC-3 CDX model) | Rats survived at day 14 (Sprague-Dawley rats; rat, in vivo, 15 mg/kg) | TGI (PSN-1 CDX model; 15 mg/kg) | Tumor volume Day 4 (PSN-1 CDX model; 15 mg/kg) | Tumor volume Day 0 (PSN-1 CDX model; 15 mg/kg) | TGI (PSN-1 CDX model; 30 mg/kg) | Tumor volume Day 4 (PSN-1 CDX model; 30 mg/kg) | Tumor volume Day 0 (PSN-1 CDX model; 30 mg/kg) | TGI (PSN-1 CDX model; 60 mg/kg) | further results
1 | CN1CCN(c2ccc(OC(F)(F)F)c(Nc3ncc4c(n3)-c3c(c(C(N)=O)nn3CCO)CC4)c2)CC1 [NMS-P937] | 2.5 | 56.5 | 127 nM | 1150 nM | 44.6 nM | 114 nM | medium permeability | 71.6% | 93.3% | 6.1 ×10⁻⁶ cm/s | 34.2 ×10⁻⁶ cm/s | two mice died | 2/3 | 51.3% | 166.43 ± 5.79 mm^3 | 119.66 ± 1.67 mm^3 | 68.1% | 149.94 ± 4.21 mm^3 | 119.38 ± 2.09 mm^3 | 81.2% | Body weight (BxPC-3 CDX model; NOD SCID mice): dramatically reduced body weight; Mice died (BxPC-3 CDX model; listed as NMP-P937, 60 mg/kg): 2/6; Death / survival after 9-day dosing (Sprague-Dawley rats; 15 mg/kg): 1 out of 3 rats treated with NMS-P937 died and Death of 1/3 rat; Tumor volume Day 4 (PSN-1 CDX model; 60 mg/kg): 137.49 ± 5.16 mm^3; Tumor volume Day 0 (PSN-1 CDX model; 60 mg/kg): 119.42 ± 2.14 mm^3
2 | [2H]C1([2H])N(C)C([2H])([2H])C([2H])([2H])N(c2ccc(OC(F)(F)F)c(Nc3ncc4c(n3)-c3c(c(C(N)=O)nn3CCO)CC4)c2)C1([2H])[2H] [PR00012] | 15.6 | 68.5 | 115 nM | 81.4 nM | 48.7 nM | 112 nM | medium permeability | 79.7% | 89.7% | 5.2 ×10⁻⁶ cm/s | 34.7 ×10⁻⁶ cm/s | one mouse died and 1/6 | 3/3 | 55.5% | 162.12 ± 4.11 mm^3 | 119.44 ± 1.78 mm^3 | 75.0% | 143.49 ± 5.64 mm^3 | 119.48 ± 1.95 mm^3 | 91.2% | Tumor growth (BxPC-3 CDX model; NOD SCID mice): tumor growth inhibition in a dose-dependent manner; Death / survival after 9-day dosing (Sprague-Dawley rats): all three rats treated with PR00012 survived; Tolerability (Sprague-Dawley rats; rat, in vivo, 10 mg/kg): the rats were still tolerable; Tumor volume Day 4 (PSN-1 CDX model; 60 mg/kg): 127.93 ± 1.60 mm^3; Tumor volume Day 0 (PSN-1 CDX model; 60 mg/kg): 119.48 ± 1.72 mm^3
